Experimental findings from article PMC9481563, “Structural insights into the pSer/pThr dependent regulation of the SHP2 tyrosine phosphatase in insulin and CD28 signaling” (Nature Communications, 2022) are described below.

Where a chain is given by its changes, count along the chain named.

The target of test [1] is T1, inactive SHP2 catalytic domain Flapmut (H426F) (Homo sapiens, UniProt Q06124, C459S/H426F).
T1 construct: SHP2 H425F (Flapmut); 219-528 + C459S; His6 (N); made in house; host or cells: E. coli BL21 (DE3)
T1 sequence (Q06124 219-528 H426F/C459S): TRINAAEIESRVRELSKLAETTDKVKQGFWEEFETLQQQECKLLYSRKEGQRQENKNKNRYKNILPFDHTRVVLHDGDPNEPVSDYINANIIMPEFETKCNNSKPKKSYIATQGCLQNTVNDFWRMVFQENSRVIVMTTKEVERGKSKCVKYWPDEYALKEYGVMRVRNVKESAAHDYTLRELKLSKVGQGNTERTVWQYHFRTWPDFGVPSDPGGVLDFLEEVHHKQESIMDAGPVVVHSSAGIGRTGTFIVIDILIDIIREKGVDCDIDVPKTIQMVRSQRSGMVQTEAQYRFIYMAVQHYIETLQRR
Description: Fluorescence polarization titrations, SHP2 Flapmut. Format: binding. Conditions: competitive FP titration vs CF-ppIRS1 100 nM, protein fixed; n = 3 technical replicates. The text has this: (§1) The two SH2 domains of PI3KR1 (UniProt P27986; nSH2: 321−433 cSH2: 614–724) were cloned from HEK293T cDNA pool, and subsequently ligated into a modified pET vector encoding maltose binding protein (MBP) tag on the N-terminal and a hexa-His tag on the C-terminal end of the construct. Similarly, the catalytic, tyrosine phosphatase domains of PTPRε (P23469 first domain: 107–399) and PTP1B (P18031; 1–229) were cloned from a HEK293T cDNA pool, and inserted into a pBH4 vector encoding an N-terminal His6 tag (for the final binding experiments, an MBP-tagged version of PTPRε was employed). […] Surface mutants of SHP2 were constructed from the SHP2-C459S plasmid, using the QuickChange protocol. The D425A and H426A catalytic site mutants and all enzymatically active surface mutants were generated similarly, but from the plasmid encoding the wild-type catalytic domain of SHP2. Wild-type C-terminal FLAG-tagged human IRS1 was cloned between HindIII-NotI sites of pcDNA3.1(+) vector (#V79020 Invitrogen, Waltham MA USA). Ser/Ala mutant IRS1 was generated by replacing the region of S616/S636/S666/S736 positions with a cassette carrying S616A/S636A/S666A/S736A mutations. All constructs were validated by complete Sanger sequencing before protein expression and purification. The oligonucleotide sequences used are shown on Supplementary table 4.
(§2) Fluorescence polarization (FP) assays were performed as follows: In direct titration experiments, protein concentration was varied in an 1/2 or 2/3 dilution series (90 µl protein+ 45 µl mix), while concentration of the reporter peptide (CF-ppIRS1) was kept constant at 100 nM. In competitive titrations, the labelled CF-ppIRS1 peptide and protein were both fixed (at 50–80% saturation) and the unlabelled competitor peptide concentration was varied. Fluorescence polarization was always measured in triplicates, on black Corning low volume round bottom 384-well plates (with 10 ul volumes), using a BioTek Cytatation 5 reader, with the green fluorescent protein (GFP) cube filter set (ex: 485/20, em: 528/20, gain: 50, height: 7.5). Fluorescence polarization data was evaluated on Origin 2018. The dissociation constants (Kd) were determined by using the appropriate quadratic and cubic equations inserted as a user-defined function and applying nonlinear fit until convergence. The fitting formulae are shown at Supplementary note 1. Kd ratio distributions for Fig. 6 were calculated using a Monte-Carlo approach (Supplementary note 2).
(§3) Supplementary note 1. Curve fitting of fluorescence polarization (FP) measurements.
(§4) To evaluate polarization values from direct and competitive titrations, we used the following fitting formulae in Origin 2018, as detailed below.
(§5) Direct titration curves were fitted according to the following formula: […]
(§6) Where Imin is the minimal anisotropy, Imax is the (asymptotically estimated) maximal intensity. K0 is the starting concentration of the protein, while T0 is the (fixed) concentration of the labelled peptide and Kd is the dissociation constant.
(§7) Competitive titration curves were fitted with a different formula (In addition to those defined above, constants KdT KdB B0 T0 and D0 here refer to the Kd derived from the direct titration, the unknown Kd of the analyte, the labelled peptide concentration, the competitor peptide concentration as well as the protein concentration, respectively).
(§8) The ± sign refers to two different scenarios, depending on the sign of discriminant (KdT > KdB or […]). For unknown analytes, the choice of sign is not arbitrary, as the fitting will not converge unless the appropriate formula is chosen: […]
(§9) Where A, B and C correspond to the following expressions: […]
Background: Polarisation of emitted light reports the rotation of a fluorescent probe.

Test [2] has as its target T2, inactive SHP2 catalytic domain Pocketless (K260E+R265S) (Homo sapiens, UniProt Q06124, C459S/K260E/R265S).
T2 construct: SHP2 K260E+R265S (Pocketless); 219-528 + C459S; His6 (N); made in house; host or cells: E. coli BL21 (DE3)
T2 sequence (Q06124 219-528 K260E/R265S/C459S): T1 sequence (Q06124 219-528 H426F/C459S) with K42E, R47S, F208H
Nature of the test: Fluorescence polarization titrations, SHP2 Pocketless. Format: binding. Conditions: competitive FP titration vs CF-ppIRS1 100 nM, protein fixed; n = 3 technical replicates.
From the text: as §1, §2, §3, §4, §5, §6, §7, §8, §9

With `CSCC[C@H](NC(=O)[C@@H]1CCCN1C(=O)[C@H](CCSC)NC(=O)[C@H](Cc1ccc(OP(=O)(O)O)cc1)NC(=O)[C@H](CC(=O)O)NC(=O)CNC(=O)[C@H](CO)NC(=O)CNC(=O)[C@H](CCCCN)NC(=O)[C@H](CCCNC(=N)N)NC(=O)CN)C(=O)N[C@@H](COP(=O)(O)O)C(=O)N1CCC[C@H]1C(=O)N[C@@H](CCCCN)C(=O)N[C@@H](CO)C(=O)O` [ppIRS1], the Kd (as a rule, the free concentration of one partner at which half of the binding sites on the other are occupied at equilibrium, for simple one-to-one binding) in test [1] is 3.89 ± 0.19 µM; in test [2], 6.36 ± 0.28 µM.

For the compound `CSCC[C@H](NC(=O)[C@H](Cc1ccc(OP(=O)(O)O)cc1)NC(=O)[C@H](CC(=O)O)NC(=O)[C@H](CO)NC(=O)[C@H](Cc1c[nH]cn1)NC(=O)[C@H](CC(C)C)NC(=O)[C@H](CC(C)C)NC(=O)[C@H](CCCNC(=N)N)NC(=O)[C@H](CO)NC(=O)[C@@H](N)CCCNC(=N)N)C(=O)N[C@@H](CC(N)=O)C(=O)N[C@@H](CCSC)C(=O)N[C@H](C(=O)N1CCC[C@H]1C(=O)N[C@@H](CCCNC(=N)N)C(=O)N[C@@H](CCCNC(=N)N)C(=O)O)[C@@H](C)O` [p0CD28], the Kd in test [1] was found to be 63.7 ± 3.1 µM; in test [2], 34.8 ± 2.25 µM.

Consider `CC[C@H](C)[C@H](NC(=O)[C@H](CC(N)=O)NC(=O)[C@@H](NC(=O)[C@H](Cc1ccc(OP(=O)(O)O)cc1)NC(=O)[C@H](CCC(=O)O)NC(=O)CNC(=O)[C@@H]1CCCN1C(=O)[C@H](CO)NC(=O)[C@H](CCCCN)NC(=O)[C@@H]1CCCN1C(=O)[C@@H](N)CCC(=O)O)C(C)C)C(=O)N[C@@H](CCC(=O)O)C(=O)N[C@@H](Cc1ccccc1)C(=O)O` [p0SRev-IRS1], for which the dissociation constant (Kd) in test [1] is 6.05 ± 0.29 µM; in test [2], 17.7 ± 2.13 µM.

In the case of `CC[C@H](C)[C@H](NC(=O)[C@H](CC(N)=O)NC(=O)[C@@H](NC(=O)[C@H](Cc1ccc(OP(=O)(O)O)cc1)NC(=O)[C@H](CCC(=O)O)NC(=O)CNC(=O)[C@@H]1CCCN1C(=O)[C@H](COP(=O)(O)O)NC(=O)[C@H](CCCCN)NC(=O)[C@@H]1CCCN1C(=O)[C@@H](N)CCC(=O)O)C(C)C)C(=O)N[C@@H](CCC(=O)O)C(=O)N[C@@H](Cc1ccccc1)C(=O)O` [ppSRev-IRS1], the results for the equilibrium dissociation constant (Kd) in test [1] and in test [2] were 0.54 ± 0.03 µM and 1.91 ± 0.2 µM, respectively.

Regarding `CSCC[C@H](NC(=O)[C@H](Cc1ccc(OP(=O)(O)O)cc1)NC(=O)[C@H](CC(=O)O)NC(=O)[C@H](CO)NC(=O)[C@H](Cc1c[nH]cn1)NC(=O)[C@H](CC(C)C)NC(=O)[C@H](CC(C)C)NC(=O)[C@H](CCCNC(=N)N)NC(=O)[C@H](CO)NC(=O)[C@@H](N)CCCNC(=N)N)C(=O)N[C@@H](CC(N)=O)C(=O)N[C@@H](CCSC)C(=O)N[C@H](C(=O)N1CCC[C@H]1C(=O)N[C@@H](CCCNC(=N)N)C(=O)N[C@@H](CCCNC(=N)N)C(=O)O)[C@@H](C)OP(=O)(O)O` [ppCD28], the Kd in test [1] was 9.96 ± 0.47 µM; in test [2], 5.63 ± 0.29 µM.

Take `CSCC[C@H](NC(=O)[C@@H]1CCCN1C(=O)[C@H](CCSC)NC(=O)[C@H](Cc1ccc(OP(=O)(O)O)cc1)NC(=O)[C@H](CC(=O)O)NC(=O)CNC(=O)[C@H](CO)NC(=O)CNC(=O)[C@H](CCCCN)NC(=O)[C@H](CCCNC(=N)N)NC(=O)CN)C(=O)N[C@@H](CO)C(=O)N1CCC[C@H]1C(=O)N[C@@H](CCCCN)C(=O)N[C@@H](CO)C(=O)O` [p0IRS1]: the dissociation constant Kd in test [1] came out at 172 ± 4.89 µM; in test [2], 191 ± 15.5 µM.
